Test results taken from the METLIN SMRT retention time set (Domingo-Almenara et al. 2019).

Test: gradient 5% acetonitrile 3 min, to 50% in 2 min, to 85% in 15 min, held 3 min, 100 µL/min
Conditions: column: Zorbax Extend-C18 2.1 x 50 mm; eluents: water / acetonitrile, 0.1% formic acid
Summary of the method: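 Values are retention times taken from adduct peaks that software picked and an analyst inspected. The pure standards were run as mixtures of ~100 molecules on HPLC linked to a quadrupole time-of-flight mass spectrometer, in positive and negative ionization mode. A Zorbax Extend-C18 column (2.1 × 50 mm, 1.8 μm) was used at 100 μL/min with water and acetonitrile, each including 0.1% formic acid.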

Row | SMILES | RP-LC retention time
1 | COc1cccc(N2CCN(C(=O)C3CC(=O)N(c4n[nH]c5cccc(F)c45)C3)CC2)c1 (stereo not given) | 742 s
2 | O=C(Nc1cc(C(F)(F)F)cc(C(F)(F)F)c1)c1ccc(=O)[nH]n1 | 814 s
3 | COc1ccc(NC(=O)Cn2c(N3CCOCC3)nc(C)cc2=O)c(OC)c1 | 669 s
4 | O=C(CNC(=O)c1cccc(Br)c1)NCc1cscn1 | 652 s
5 | Cc1cc2c(=O)n(CC(=O)Nc3ccc(Cl)cc3F)ccc2s1 | 871 s
6 | O=C(CCc1nc(-c2ccc(N3CCCC3)cc2)no1)Nc1ccc(Br)cc1F | 1220 s
7 | CCN1C(=O)COc2ccc(-c3nc(NC(=O)CCC4CCCCC4)sc3C)cc21 | 1240 s
8 | CCOc1cc(=O)n2c(c1C(=O)Nc1ccc(Cl)cc1C)CCCC2 | 786 s
9 | COc1ccccc1N1CCN(C(=O)C2CCN(c3ncnc4c3oc3ccccc34)CC2)CC1 | 765 s
10 | CC(NC(=O)c1ccc(C(F)(F)F)cc1)C(=O)Nc1nc2ccccc2[nH]1 (stereo not given) | 641 s
11 | COC(=O)c1ccc2c(=O)n(-c3cccc(OC)c3)c(N3CCOCC3)nc2c1 | 887 s
12 | O=C(Cn1ccn2nc(-c3ccc(F)cc3)c(CO)c2c1=O)Nc1ccc(Cl)cc1F | 909 s
13 | COC(=O)c1cc2ccsc2n1Cc1ccccc1C#N | 1030 s
14 | Clc1ccc(CNc2nnc(N3CCOCC3)c3ccccc23)cc1 | 693 s
15 | O=c1n(Cc2cc(F)cc(F)c2)nc2c(S(=O)(=O)N3CCCCCC3)cccn12 | 973 s
16 | Cc1ccc2c(c1)N(S(C)(=O)=O)CCC(C(=O)Nc1ccc(Br)cc1)O2 (stereo not given) | 1020 s
17 | CSc1ccc(-c2nc3cnccn3c2Nc2ccc(C(C)C)cc2)cc1 | 1160 s
18 | COc1ccc(-c2nc(Nc3nc(C)cc(C)n3)sc2CCC(=O)O)cc1 | 702 s
19 | CS(=O)(=O)N1CC(F)(F)C[C@H]1c1nc(-c2ccncc2)no1 | 693 s
20 | Cc1[nH]c(C(=O)N2CCCC(C(=O)NCCN3CCOCC3)C2)c(C)c1C(=O)OC(C)C (stereo not given) | 607 s
21 | Cc1cc(NC(=O)c2cccc(N3C(=O)CCC3=O)c2)on1 | 622 s
22 | O=C(CN1CCN(C(=O)Nc2ccc(Br)cc2)CC1=O)NCc1ccco1 | 718 s
23 | COC(=O)c1c(NC2CCCC2)c2cccc(Cl)c2[nH]c1=O | 830 s

Row | SMILES | RP-LC retention time
24 | O=C(NC1CCCC1)c1cc2n(n1)CCCN(Cc1ccc(Cl)cc1)C2=O | 890 s
25 | CCOC(=O)c1c(C)[nH]c(C(=O)N2CCC(CC(=O)NC(C)c3ccccc3)CC2)c1C (stereo not given) | 780 s
26 | COC(=O)c1c(C)[nH]c(C(=O)N2CCC(CC(=O)NCCC(C)N3CCCC3)CC2)c1C (stereo not given) | 578 s
27 | Cc1ncoc1C(=O)N1CC(F)(F)C[C@H]1c1nc(C2CC2)no1 | 768 s
28 | CC(C)n1cnc(S(=O)(=O)N2CCC(C(=O)Nc3ccc(F)cc3)CC2)c1 | 740 s
29 | CN1c2ccccc2C(=O)NC12CCN(C(=O)Nc1cccc(Cl)c1)CC2 | 804 s
30 | O=C(Nc1ccccc1)c1c(O)c2cccnc2n(-c2ccc(F)cc2)c1=O | 1210 s
31 | CCc1nnc([C@@H]2CC(F)(F)CN2C(=O)CCn2nc(C)cc2C)o1 | 666 s
32 | COc1ccccc1CNC(=O)c1cn(C)nc1S(=O)(=O)N1CCC(C)CC1 | 951 s
33 | COc1cccc(-c2nc3sc(C(=O)N(C)C)c(C)n3c2NC(C)(C)C)c1 | 773 s
34 | COc1ccc(Cl)cc1NC(=O)N1CCCC(C)(C(=O)NCc2ccc(F)cc2)C1 (stereo not given) | 1020 s
35 | Cc1ccc(-c2nc(-c3ccc(-n4cccn4)nc3)no2)cc1F | 1370 s
36 | Cc1oc(-c2[nH]ncc2C(=O)N(C)C)cc1S(=O)(=O)Nc1ccc(Cl)cc1F | 714 s
37 | Cc1ccc(-c2noc(C(=O)N3CCCC3)n2)cc1S(=O)(=O)N1CCN(c2ncccn2)CC1 | 959 s
38 | CCOC(=O)c1c(C)[nH]c(C(=O)N2CCC(CC(=O)NCc3ccc(C)cc3)CC2)c1C | 822 s
39 | O=C(Cn1cc(-c2ccccc2)c2ncnc(N3CCOCC3)c21)N1CCCCC1 | 700 s
40 | COc1ccc2c(c1)C=C(C(=O)N(C)c1ccccc1)C=CO2 | 1030 s
41 | COCCNC(=O)c1cc2c(n(-c3ccc(C(F)(F)F)cc3)c1=O)CCCC2=O | 786 s
42 | O=c1cc(CN(Cc2ccccc2)Cc2ccccc2)nc2ccc(Cl)cn12 | 745 s
43 | Cc1c(NC(=O)C2CCC2)c(=O)n(-c2ccccc2)n1C | 596 s
44 | CCCOC(=O)C1=CN(C)S(=O)(=O)N=C1C | 796 s
45 | CC(C)Oc1ccc(CNC(=O)c2nc(N3CCOCC3)c3ccccc3n2)cc1 | 738 s
46 | O=C(Nc1ccc2c(c1)CCN(Cc1ncn[nH]1)C2)c1ccccc1-c1ccc(C(F)(F)F)cc1 | 755 s

Row | SMILES | RP-LC retention time
47 | Cn1ccnc1SCC(=O)c1ccc([N+](=O)[O-])cc1 | 549 s
48 | COCCn1ccc2nc(C)c(C(=O)N3CCN(c4ccccn4)CC3)cc2c1=O | 554 s
49 | O=C(NCc1ccco1)C1CCN(c2ncccc2-c2nc(-c3cccc(Cl)c3)no2)CC1 | 1060 s
50 | Cn1c(=O)c(N2CCN(S(=O)(=O)c3cccc(Cl)c3)CC2)nc2ccncc21 | 677 s
51 | CN(Cc1ccoc1)C(=O)NC1CCCC1 | 763 s
52 | CCn1c(N2CCCC(C(=O)NCc3ccc(SC)cc3)C2)cc(=O)n(C)c1=O (stereo not given) | 809 s
53 | COCC1CN(C(=O)c2ccco2)CCC1(F)F (stereo not given) | 759 s
54 | CCCCNC(=O)c1cn(-c2cc(-c3nc(C)no3)ccn2)cn1 | 779 s
55 | CCn1cc(C(=O)NCc2ccccc2C)c(S(=O)(=O)N2CCSCC2)n1 | 1120 s
56 | Cc1ccc(S(=O)(=O)N2CCC(CCNC(=O)NCCc3ccccc3)CC2)cc1 | 924 s
57 | COc1ccc(-c2csc(Cc3nc(-c4cccc(Cl)c4)no3)n2)cc1OC | 1160 s
58 | CCCCC(=O)Nc1nc(-c2ccc3c(c2)N(CCC)C(=O)CO3)cs1 | 1010 s
59 | COc1ccc(Cl)cc1NC(=O)NC1CCCCC1N1C(=O)CSC1=O (stereo not given) | 870 s
60 | COc1cccc(N2CCN(C(=O)C3CCCN(c4nc5ncccc5n5cccc45)C3)CC2)c1 (stereo not given) | 696 s
61 | O=C(N[C@H]1C[C@@H]2C[C@H]1CN2C(=O)c1ccc2c(c1)OCO2)c1cccs1 | 871 s
62 | CSc1ccc(NS(=O)(=O)c2cc3c(s2)CCN(C(=O)C2CC2)C3)cc1 | 856 s
63 | COc1nc2ccccc2nc1N1CCCC(C(=O)NC2CCCC(C)C2C)C1 (stereo not given) | 1160 s
64 | CCCCOC(=O)c1ccc(NC(=O)c2snnc2CC)cc1 | 1010 s
65 | Clc1cncc(N2CCNCC2)n1 | 614 s
66 | O=C(N1CCC2(CC1)CC(CCOc1ccncc1)CCO2)C1(c2ccccc2)CC1 (stereo not given) | 664 s
67 | CCCS(=O)(=O)N1CCCC(c2nc(C(C)C)no2)CCNC(=O)CC1 (stereo not given) | 720 s
68 | Cc1ccc(-c2cc3c4nn(CC(=O)NC5CCCCC5)c(=O)n4ccn3n2)cc1C | 980 s
69 | CCCn1cc(CCNC(=O)c2ccccc2Br)c2cccnc21 | 748 s

Row | SMILES | RP-LC retention time
70 | CN(C)CCNc1ccc(-c2nc(-c3cccc(F)c3)no2)cn1 | 678 s
71 | CCOc1ccc(CC(=O)N2CCC3(CC2)N=C(c2ccc(C)cc2)NO3)cc1 | 871 s
72 | CC(=O)Nc1cccc(N2CC(C(=O)Nc3ccc(C(F)(F)F)cc3)CC2=O)c1 (stereo not given) | 770 s
73 | COc1ccccc1OCC(=O)NCC1(c2cccs2)CCCC1 | 557 s
74 | COc1ccc(Cl)cc1-c1nc(-c2ccc3oc(C)nc3c2)no1 | 1060 s
75 | CCc1noc(NC(C)=O)c1-c1ccc(C)c(S(=O)(=O)Nc2ccc(F)c(Cl)c2)c1 | 875 s
76 | Cc1cc(NC(=O)Cn2c(C)cc(-c3nnc(C4CCC4)o3)c2C)ccc1F | 934 s
77 | CN1CCN(c2ccc(CNC(=O)C3CCCN(c4nccnc4Oc4ccccc4)C3)cc2)CC1 (stereo not given) | 664 s
78 | O=C(Cc1ccsc1)Nc1cccn2ncnc12 | 699 s
79 | Cc1cc(NC(=O)N2CCC(n3cnc4cccnc43)CC2)ccc1Br | 684 s
80 | Cc1ccc(C(=O)N2CCN(c3nnc4cccc(C)n34)CC2)cc1F | 667 s
81 | CCN1c2ccc(F)cc2C(=O)NC12CCN(C(=O)c1ccc(F)c(F)c1)CC2 | 822 s
82 | Cc1nnc(N2CCC(C(=O)NCCc3c[nH]c4ccccc34)CC2)c2nn(-c3ccccc3)c(C)c12 | 730 s
83 | COc1ccccc1NC(=O)C1CCCN1S(=O)(=O)c1cc2c(cc1Cl)NC(=O)CO2 (stereo not given) | 805 s
84 | Cc1noc(C)c1CC(=O)N1CC(c2noc(C3CCCN3C)n2)C1 (stereo not given) | 594 s
85 | CCCCCCN1CCN(c2cccc(Cl)c2)CC1 | 737 s
86 | Cn1ncc(N2CCCC(C(=O)NC3CCCCCC3)C2)cc1=O (stereo not given) | 726 s
87 | CCn1ncn2cc(S(=O)(=O)Nc3cccc(C)c3)cc2c1=O | 849 s
88 | CCOc1ccc2ncc(S(=O)(=O)c3ccc(OC)cc3)c(N3CCN(CC)CC3)c2c1 | 660 s
89 | O=C(CCC1CCCN(c2cc(NC3CC3)ncn2)C1)N1CCCN(c2ncccn2)CC1 (stereo not given) | 618 s
90 | Cc1cc2c(cc1S(=O)(=O)N1CCCC1C(=O)NCCCc1ccccc1)OCC(=O)N2 (stereo not given) | 816 s
